Data from ChEMBL document CHEMBL2406942, “Design, synthesis and neuroprotective evaluation of novel tacrine-benzothiazole hybrids as multi-targeted compounds against Alzheimer's disease” (Bioorg Med Chem, 2013).
Calls of active or inactive are those of the source. No cut-off for these calls is given here.

Assays:
[1] = system: Radical scavenging activity; assay: Antioxidant activity assessed as DPPH free radical scavenging activity at 1 mM after 30 mins by spectrophotometric analysis relative to control; type: functional
Acetylcholinesterase = Acetylcholinesterase (Electrophorus electricus, UniProt O42275)
Description: Inhibition of electric eel AChE using acetylcholine iodide as substrate preincubated for 15 mins prior to substrate addition by Ellman's method

[2] = system: Radical scavenging activity
Description: Antioxidant activity assessed as DPPH free radical scavenging activity after 30 mins by spectrophotometric analysis

[3] = target: Amyloid-beta precursor protein (Homo sapiens) (UniProt P05067); assay: Neuroprotective activity against amyloid beta (1 to 42)-induced toxicity in human SH-SY5Y cells at 2.5 uM preincubated for 3 hrs by MTT assay; type: functional, cell-based
[4] = target: Amyloid-beta precursor protein (Homo sapiens) (UniProt P05067); assay: Neuroprotective activity against amyloid beta (1 to 42)-induced toxicity in Alzheimer's disease patient platelet-SH-SY5Y cell cybrid at 2.5 uM preincubated for 3 hrs by MTT assay; type: functional, cell-based
[5] = target: Amyloid-beta precursor protein (Homo sapiens) (UniProt P05067); assay: Neuroprotective activity against amyloid beta (1 to 42)-induced toxicity in mild cognitive impairment patient platelet-SH-SY5Y cell cybrid at 2.5 uM preincubated for 3 hrs by MTT assay; type: functional, cell-based
[6] = system: Radical scavenging activity; assay: Antioxidant activity assessed as DPPH free radical scavenging activity at 1.22 mM after 30 mins by spectrophotometric analysis relative to control; type: functional
[7] = target: Amyloid-beta precursor protein (Homo sapiens) (UniProt P05067); assay: Neuroprotective activity against amyloid beta (1 to 42)-induced toxicity in normal cognition human platelet-SH-SY5Y cell cybrid at 2.5 uM preincubated for 3 hrs by MTT assay; type: functional, cell-based
[8] = system: Radical scavenging activity; assay: Antioxidant activity assessed as DPPH free radical scavenging activity at 1.32 mM after 30 mins by spectrophotometric analysis relative to control; type: functional

Chain of Acetylcholinesterase (O42275 whole entry): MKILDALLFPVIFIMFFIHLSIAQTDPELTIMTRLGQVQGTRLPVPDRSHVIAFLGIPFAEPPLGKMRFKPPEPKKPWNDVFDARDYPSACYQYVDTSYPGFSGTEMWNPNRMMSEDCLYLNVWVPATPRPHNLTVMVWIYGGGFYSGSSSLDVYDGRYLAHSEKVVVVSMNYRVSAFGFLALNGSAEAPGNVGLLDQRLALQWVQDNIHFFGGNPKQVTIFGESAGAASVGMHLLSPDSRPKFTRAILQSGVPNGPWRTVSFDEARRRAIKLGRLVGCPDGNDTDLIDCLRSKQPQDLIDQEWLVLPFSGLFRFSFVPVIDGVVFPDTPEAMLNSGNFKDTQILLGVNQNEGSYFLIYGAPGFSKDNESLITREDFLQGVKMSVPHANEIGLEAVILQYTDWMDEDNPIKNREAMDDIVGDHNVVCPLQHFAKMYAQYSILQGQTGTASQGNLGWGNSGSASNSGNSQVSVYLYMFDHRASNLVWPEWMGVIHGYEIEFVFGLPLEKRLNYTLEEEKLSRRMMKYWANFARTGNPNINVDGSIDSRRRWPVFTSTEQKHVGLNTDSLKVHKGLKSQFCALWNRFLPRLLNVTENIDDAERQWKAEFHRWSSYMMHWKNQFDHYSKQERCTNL
Chain of Amyloid-beta precursor protein (Homo sapiens) (P05067 whole entry): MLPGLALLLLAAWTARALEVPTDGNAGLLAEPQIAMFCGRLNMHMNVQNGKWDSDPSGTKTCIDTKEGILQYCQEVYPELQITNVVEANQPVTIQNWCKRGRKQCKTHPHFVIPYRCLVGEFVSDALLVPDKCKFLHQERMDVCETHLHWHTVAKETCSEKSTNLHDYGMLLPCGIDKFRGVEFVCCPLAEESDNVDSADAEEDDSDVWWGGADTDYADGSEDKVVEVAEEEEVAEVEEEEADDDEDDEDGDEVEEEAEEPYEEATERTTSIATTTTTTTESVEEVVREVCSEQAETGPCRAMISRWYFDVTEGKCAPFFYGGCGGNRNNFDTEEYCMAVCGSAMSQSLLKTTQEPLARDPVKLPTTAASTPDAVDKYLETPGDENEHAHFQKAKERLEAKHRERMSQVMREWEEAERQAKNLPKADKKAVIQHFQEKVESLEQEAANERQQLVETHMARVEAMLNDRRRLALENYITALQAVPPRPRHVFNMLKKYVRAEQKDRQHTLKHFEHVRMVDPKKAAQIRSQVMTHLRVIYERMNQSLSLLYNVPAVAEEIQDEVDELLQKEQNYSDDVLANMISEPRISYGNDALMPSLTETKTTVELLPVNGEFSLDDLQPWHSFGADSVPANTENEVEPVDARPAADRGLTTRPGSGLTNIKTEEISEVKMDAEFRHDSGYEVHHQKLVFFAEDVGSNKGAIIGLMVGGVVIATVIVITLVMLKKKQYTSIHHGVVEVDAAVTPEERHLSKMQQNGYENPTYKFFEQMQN

Structure (SMILES)	Activity [1]	IC50 (Acetylcholinesterase)	EC50 [2]	Activity [3]	Activity [4]	Activity [5]	Activity [6]	Activity [7]	Activity [8]
O=C(CCCCCNc1c2c(nc3ccccc13)CCCC2)Nc1ccc(Cc2nc3ccccc3s2)cc1	25%	0.57 µM	> 1000 µM						
O=C(CCCCCNc1c2c(nc3ccccc13)CCCC2)NCc1ccc(-c2nc3ccccc3s2)cc1	25%	1.84 µM	> 1000 µM						
O=C(CCCCCNc1c2c(nc3ccccc13)CCCC2)NCCCCCc1nc2ccccc2s1	25%	0.76 µM	> 1000 µM	Active	Active	Active			
O=C(CCCCCNc1c2c(nc3ccccc13)CCCC2)NCCCc1nc2ccccc2s1	25%	0.96 µM		Active	Active	Active	25%		
O=C(CCCCCNc1c2c(nc3ccccc13)CCCC2)Nc1ccc(-c2nc3ccccc3s2)cc1	25%	0.34 µM						Active	32%
